The text below walks through data of patent US10604514B2, “6-(5-membered heteroaryl)isoquinolin-3-yl carboxamides and preparation and use thereof” (Samumed, LLC, priority 2017, dated 2020).

Experiment [1] relates to SW480 colon carcinoma cells. Description: Cell viability assay (CellTiter-Glo) in SW480 cells.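 As to all read-outs here: SW480 cells stably carrying an Sp5-luciferase TCF/LEF reporter, luminescent ATP signal as viability measure, DMSO-treated cells as control.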 The experiment is classed as cell-based, human. The following applies: Homo sapiens; for EC50: 96 h, cell viability, SW480 cells, four days, CellTiter-Glo; for inhibition at 10 µM: SW480, read-out: percent inhibition at 10 μM. For orientation: In ATP-based viability assays light output follows the ATP content of the culture.

In experiment [2] the test system is Tau phosphorylation at Ser396 (pSer396), SH-SY5Y cells. The experiment in a line: Tau phosphorylation at Ser396 (pSer396) in SH-SY5Y cells, ELISA/western blot.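 Also: cell lysates probed for reduced Tau pSer396 via ELISA (colorimetric) or western blot (chemiluminescence), both with one shared pSer396 antibody, EC50 for lowering phosphorylation.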 In kind it is cell-based, human. The following applies: Homo sapiens; SH-SY5Y cells, overnight (16-18 h); read-out: pSer396 Tau EC50. (In general: In an ELISA, binding on a coated surface is turned into a signal by an enzyme label.)

Another experiment concerns the target DYRK1A kinase (Homo sapiens (Human), UniProt Q13627). The experiment in a line: DYRK1A kinase assay (Ser/Thr 18 peptide Z-lyte, FRET).
The test system of experiment [3] is Wnt activity (Sp5-Luc reporter in SW480 colon carcinoma cells). The experiment in a line: Wnt activity screening assay (Sp5-Luc reporter gene assay). In kind it is cell-based, human. The settings on record: Homo sapiens; for EC50: Sp5-Luc reporter, SW480 cells, 36 to 48 hours; for inhibition at 10 µM: SW480, read-out: percent inhibition at 10 μM. Summed up:
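SW480 cells stably carrying an Sp5 promoter (eight TCF/LEF sites)-firefly luciferase reporter were plated in DMEM with 1% FBS and treated with a 10-point, 1:3 dilution series from 10 μM (0.1% DMSO) for 36 to 48 h at 37° C. Luminescence was normalized to DMSO controls, and EC50 came from four-parameter nonlinear regression.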
(Reporter assays use an easily measured gene product as a stand-in for the process of interest.)

The target in a further experiment is GSK3β kinase (Homo sapiens (Human), UniProt P49841). The experiment in a line: GSK3β kinase assay (Ser/Thr 09 peptide Z-lyte, FRET).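 Also: Coumarin/fluorescein emission ratio converted to percent phosphorylation against unphosphorylated (0%) and phosphorylated (100%) controls, 1 h compound incubation at room temperature, 11-point threefold dilutions from 10 µM, run in duplicate.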 The experiment is classed as biochemical. The following applies: method text calls the value IC50.
The test system of a further experiment is IL-6. Description: IL-6 inhibition in LPS-stimulated human peripheral blood mononuclear cells (HTRF). The experiment is classed as cell-based. The settings on record: Homo sapiens, PBMC; for EC50: IL-6, LPS-stimulated huPBMCs, HTRF. Summed up: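 Fresh human PBMCs (5000 cells/well, 1% FBS RPMI) preincubated with compound (10-point 1:3 series from 10 μM, 0.25% DMSO) 2 h at 37 °C, then stimulated with 50 ng/mL E. coli LPS for 22 h. IL-6 by HTRF 665/620 ratio; DMSO-normalized, EC50 from 4-parameter fit.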

Experiment [4] has as its system LL29 cells (primary human fibroblasts derived from IPF patients), α-smooth muscle actin. The experiment in a line: Inhibition of fibrotic process: αSMA in TGF-β1-treated primary human fibroblasts from IPF patients (LL29 cells). The settings on record: Homo sapiens, Fibroblast, 96 h; % αSMA-positive LL29 cells, TGF-β1 20 ng/mL, 4 days. The experiment is classed as cell-based. Summed up:
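IPF-patient lung fibroblasts (LL29) were stimulated with TGF-β1 (20 ng/mL) in 1% FBS medium with compound (11-point 1:2 series, 0.1% DMSO) for 4 days at 37 °C. Fixed cells were immunostained for αSMA and imaged, excluding SYTOX-positive dead cells. The % αSMA-positive cells was normalized to TGF-β1/DMSO control wells.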

Setting [5] is: DYRK1A kinase, method text calls the value IC50.

Each structure is given as a SMILES string. Like-named read-outs stand apart in the source and are kept apart here. Some results are limits rather than exact numbers.

Chain of GSK3β kinase (P49841 whole entry): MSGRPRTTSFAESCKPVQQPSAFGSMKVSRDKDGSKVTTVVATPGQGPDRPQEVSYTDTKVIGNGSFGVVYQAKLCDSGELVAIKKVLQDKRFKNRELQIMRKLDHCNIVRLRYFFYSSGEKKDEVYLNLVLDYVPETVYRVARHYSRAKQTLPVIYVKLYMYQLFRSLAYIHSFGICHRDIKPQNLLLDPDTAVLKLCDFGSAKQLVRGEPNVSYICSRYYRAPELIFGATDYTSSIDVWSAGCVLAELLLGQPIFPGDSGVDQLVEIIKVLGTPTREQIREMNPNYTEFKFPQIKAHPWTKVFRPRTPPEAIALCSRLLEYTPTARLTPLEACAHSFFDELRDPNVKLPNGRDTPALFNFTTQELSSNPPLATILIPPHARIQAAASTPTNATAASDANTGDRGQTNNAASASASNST

Usually EC50 stands for the concentration at which the effect is half-maximal. For `Cc1nnc(-c2ccc3cnc(NC(=O)N4CCn5ccnc5C4)cc3c2)s1` [Compound 125, N-(6-(5-Methyl-1,3,4-thiadiazol-2-yl)isoquinolin-3-yl)-5,6-dihydroimidazo [1,2-a]pyrazine-7(8H)-carboxamide], the 50% effective concentration (EC50) in experiment [1] stood at 1660 nM; in experiment [2], 114 nM; on DYRK1A kinase (setting [5]) it was 4 nM; in experiment [3], 1240 nM; on GSK3β kinase it was 5 nM; in the experiment with IL-6 it was 9270 nM. The compound further yielded an EC50 in experiment [4] of 442 nM.
For the compound `Cc1nnc(-c2ccc3cnc(NC(=O)C4CCNCC4)cc3c2)s1` [Compound 24, N-(6-(5-Methyl-1,3,4-thiadiazol-2-yl)isoquinolin-3-yl)piperidine-4-carboxamide], the EC50 worked out at 3640 nM in experiment [1]; 127 nM in experiment [2]; 7 nM on DYRK1A kinase (setting [5]); 1190 nM in experiment [3]; 30 nM at GSK3β kinase; 8810 nM in the experiment on IL-6. The compound also showed a concentration giving a half-maximal response (EC50) in experiment [4] of 573 nM.
Consider `[2H]c1c([2H])c(C(=O)Nc2cc3cc(-c4cncn4C)ccc3cn2)c([2H])c([2H])c1OC` [Compound 89, 4-Methoxy-N-(6-(1-methyl-1H-imidazol-5-yl)isoquinolin-3-yl)benzamide-2,3,5,6-d4], for which the EC50 in experiment [1] turned out to be 480 nM; in experiment [2] it was 594 nM; at DYRK1A kinase, 2 nM; in experiment [3] it was 155 nM; on GSK3β kinase, 533 nM; with IL-6 it was 1050 nM. In experiment [4], this compound returned an EC50 of 190 nM.
For `Cc1nnc(-c2ccc3cnc(NC(=O)[C@H]4CC[C@H](N5CCOCC5)CC4)cc3c2)s1` [Compound 23, trans-N-(6-(5-Methyl-1,3,4-thiadiazol-2-yl)isoquinolin-3-yl)-4-morpholinocyclohexane-1-carboxamide], the EC50 came to 2120 nM in experiment [1]; 161 nM in experiment [2]; 4 nM on DYRK1A kinase (setting [5]); 725 nM in experiment [3]; 17 nM on GSK3β kinase; 9370 nM in the experiment on IL-6. The compound further had an EC50 in experiment [4] of 489 nM.
With `Cc1ncc(-c2ccc3cnc(NC(=O)N4CCC(N5CCOCC5)CC4)cc3c2)o1` [Compound 50, N-(6-(2-Methyloxazol-5-yl)isoquinolin-3-yl)-4-morpholinopiperidine-1-carboxamide], the half-maximal effective concentration (EC50) in experiment [1] is over 10000 nM; in experiment [2] it was 779 nM; on DYRK1A kinase (setting [5]), 20 nM; in experiment [3] it was 28 nM; on GSK3β kinase, 218 nM; in the experiment with IL-6, 9200 nM. Also, in experiment [4], the EC50 was 1470 nM. Moreover, in experiment [1], the inhibition at 10 µM amounted to 43%.
Regarding `Cc1nnc(-c2ccc3cnc(NC(=O)N4CC[C@@H](N)[C@H](F)C4)cc3c2)s1` [Compound 131, (3R,4R)-4-Amino-3-fluoro-N-(6-(5-methyl-1,3,4-thiadiazol-2-yl)isoquinolin-3-yl)piperidine-1-carboxamide], the concentration for a half-maximal effect (EC50) in experiment [1] is over 10000 nM; in experiment [2] it was 337 nM; on DYRK1A kinase (setting [5]), 13 nM; in experiment [3], 3920 nM; on GSK3β kinase it was 6 nM; in the experiment with IL-6 it was 1930 nM. This compound also had a concentration giving a half-maximal response (EC50) in experiment [4] of 1930 nM. For the same compound, in experiment [1], the inhibition at 10 µM was found to be 35.9%.
Turning to `[2H]C1([2H])OC([2H])([2H])C([2H])([2H])N(CC(=O)Nc2cc3cc(-c4cnn(C)c4)ccc3cn2)C1([2H])[2H]` [Compound 39, N-(6-(1-Methyl-1H-pyrazol-4-yl)isoquinolin-3-yl)-2-(morpholino-d8) acetamide], the half-maximal effective concentration (EC50) in experiment [1] was over 10000 nM; in experiment [2] it was 538 nM; at DYRK1A kinase it was 15 nM; in experiment [3], over 10000 nM; at GSK3β kinase, 96 nM; in the experiment with IL-6, 9400 nM. The compound also showed an EC50 in experiment [4] of 2590 nM. Besides, the inhibition at 10 µM in experiment [1] was 27.3%; in experiment [3], 36.3%.
Take `Cc1nnc(-c2ccc3cnc(NC(=O)C4(F)CCNCC4)cc3c2)s1` [Compound 25, 4-Fluoro-N-(6-(5-methyl-1,3,4-thiadiazol-2-yl)isoquinolin-3-yl)piperidine-4-carboxamide]: the EC50 in experiment [1] was over 10000 nM; in experiment [2] it was 430 nM; at DYRK1A kinase (setting [5]), 14 nM; in experiment [3], over 10000 nM; on GSK3β kinase it was 313 nM; with IL-6, over 10000 nM. Also, a half-maximal effect in experiment [4] (EC50) was put at 3870 nM. For the same compound, the inhibition at 10 µM stood at 40.3% in experiment [1], 34.3% in experiment [3] and 8% in the experiment on IL-6 (read-out: percent value in parentheses below EC50 >10).
Regarding `Cc1ncc(-c2cc(F)c3cnc(NC(=O)[C@H]4CC[C@H](C(=O)N5CCN(C)CC5)CC4)cc3c2)o1` [Compound 101, trans-N-(8-fluoro-6-(2-methyloxazol-5-yl)isoquinolin-3-yl)-4-(4-methylpiperazine-1-carbonyl)cyclohexane-1-carboxamide], the EC50 in experiment [1] was over 10000 nM; in experiment [2], 5400 nM; at DYRK1A kinase (setting [5]), 22 nM; in experiment [3], over 10000 nM; on GSK3β kinase, 1030 nM; with IL-6, 3590 nM. The concentration for a half-maximal effect (EC50) in experiment [4] was 3070 nM. Moreover, the inhibition at 10 µM in experiment [1] was determined as 18.8%; in experiment [3], 6.3%.
